From patent publication US20050085547A1, “Molecules for inducing differentiation of dendritic cells” (Council of Scientific & Industrial Research, priority 2003, published 2005)
Read-outs that look alike come from different tables or passages of the source.

Legend:
osteoclast precursors = test: In vitro osteoclastogenesis assay (M-CSF + RANKL, TRAP staining); format: cell-based, Balb/c mice; conditions: for % inhibition of osteoclast formation / Number of TRAP-positive multinuclear cells/well of 96 well plate (Mean ± SEM): 6 days; for Effect on RANKL-induced osteoclast differentiation / formation (in words): M-CSF and RANKL, TRAP-positive osteoclasts
Text: For in vitro osteoclastogenesis bone marrow cells were isolated from 5- to 8-wk-old Balb/c mice. Mice were sacrificed by cervical dislocation and femora and tibiae were aseptically removed and dissected free of adherent soft tissues. The bone ends were cut, and the marrow cavity was flushed out with medium MEM from one end of the bone using a sterile 21-gauge needle. The bone marrow suspension was carefully agitated with a plastic Pasteur pipette to obtain a single-cell suspension. The cells were washed twice and resuspended (10^6 cells/ml) in αMEM containing 10% FBS. […] After 24 h, nonadherent cells were harvested and layered on a Ficoll-Hypaque gradient. Cells at the gradient interface were collected, washed and resuspended (5×10^5/ml) in αMEM containing 10% FBS. In this study, we called these stromal cell-free, M-CSF-dependent, nonadherent cells as osteoclast precursors. These osteoclast precursors were added to 96-well plates (100 μl/well) containing plastic coverslips. Each well received further 100 μl of medium containing M-CSF (30 ng/ml), RANKL (30 ng/ml) without or with various concentrations of purified compound. Cultures were fed every 2-3 days and after incubation for 6 days osteoclast formation was evaluated by tartrate-resistant acid phosphatase (TRAP) staining. The number of TRAP-positive multinucleated cells (MNCs) containing 3 or more nuclei was scored.
TRAP is preferentially expressed at high levels in osteoclast and is considered, especially in the mouse, to be an osteoclast marker. Cytochemical staining for TRAP is widely used for identifying the osteoclasts in vivo and in vitro. It is claimed to be specific for osteoclasts in bone. After incubation, cells on cover slips were washed in PBS, fixed in 10% formalin for 10 min and stained for acid phosphatase in the presence of 0.05 M sodium tartrate. The substrate used was napthol AS-BI phosphate. Only those cells that were strongly TRAP-positive (dark red) counted by light microscopy.

[1] = tested on: mouse bone marrow leukocyte precursors; test: Viability of the stimulated BM precursor cultures; format: cell-based, BALB/c mice; parameters: Viability, % of Viable cells: reference not given here
Protocol: (§1) The fine suspension obtained above was transferred into a 50 ml sterile centrifuge tube and centrifuged for 10 minutes at 1200 rpm. […] The pellets were washed using HBSS wash buffer and then centrifuged again for 10 minutes at 1200 rpm. This process was repeated for one more time. […] This suspension was then finally passed through a MACS (Magnetic Activated Cell Sorting) column to get essentially and predominately leukocyte precursors.

[2] = tested on: mouse bone marrow leukocyte precursors; test: Differentiation of dendritic cells from bone marrow leukocyte precursors, flow cytometry of cell surface markers; format: cell-based, BALB/c mice
Protocol: as §1
In order to evaluate the upregulation of various cell surface markers associated with Dendritic cells, flow cytometry on the cells stimulated with GM-CSF or the compound was carried out using fluorescent labeled antibodies to various molecules (CD11c, I-A^d, CD80, CD86, H2-D^d, CD54, CD40).
The hind limbs of the mouse were removed carefully and placed in a Petri dish with HBSS (Hanks Balanced Saline Solution) wash buffer. The tibias and femurs were cleared of all surrounding and attached tissues. This was followed by chipping the ends of bones. The bone marrow was flushed out by injecting HBSS solution into the bone with the help of a hypodermal syringe (No. 26 gauge). The bone marrow was finally made into a fine suspension by syringing in and out of the fluid several times using an 18 gauge syringe needle.

[3] = M-CSF + RANKL + compound 0.5 μg/ml
[4] = M-CSF + RANKL + compound 1.5 μg/ml
[5] = M-CSF + RANKL + compound 3.0 μg/ml
[6] = M-CSF + RANKL + compound 5.0 μg/ml
[7] = Table A, 15 ng/ml of GM-CSF or 50 micro gram per ml of the synthetic compound, 48 h
[8] = Table B (Examples 6-8), concentration not given

O=C([O-])CCC[C@H](NS(=O)(=O)[O-])C(=O)[O-].O=C([O-])CCC[C@H](NS(=O)(=O)[O-])C(=O)[O-].[Ca+2].[Ca+2].[Ca+2] [L-homoglutamic acid, N-sulphonic acid, calcium salt]
% inhibition of osteoclast formation (osteoclast precursors; [3]): 5.55%
Number of TRAP-positive multinuclear cells/well of 96 well plate (Mean ± SEM) (osteoclast precursors; [3]): 138.57 ± 7.95 cells/well
% inhibition of osteoclast formation (osteoclast precursors; [4]): 27.60%
Number of TRAP-positive multinuclear cells/well of 96 well plate (Mean ± SEM) (osteoclast precursors; [4]): 106.23 ± 10.47 cells/well
% inhibition of osteoclast formation (osteoclast precursors; [5]): 46.40%
Number of TRAP-positive multinuclear cells/well of 96 well plate (Mean ± SEM) (osteoclast precursors; [5]): 78.57 ± 13.57 cells/well
% inhibition of osteoclast formation (osteoclast precursors; [6]): 68.50%
Number of TRAP-positive multinuclear cells/well of 96 well plate (Mean ± SEM) (osteoclast precursors; [6]): 46.22 ± 10.00 cells/well

O=C([O-])CC[C@H](NS(=O)(=O)[O-])C(=O)[O-].O=C([O-])CC[C@H](NS(=O)(=O)[O-])C(=O)[O-].[Ca+2].[Ca+2].[Ca+2] [compound 1, L-glutamyl-N-sulphonic acid, Ca salt]
Viability of the cultures at the end of the incubation period ([1]; 200 mM of the synthetic compound, 48 h (embodiment text)): more than 99%
Viability of the cultures at the end of the incubation period ([1]; 50 micro gram per ml of the synthetic compound, 48 h): > 99%
Viability, % of Viable cells [1, 7]: 150%
Induction of differentiation of dendritic cells from BM precursors (in words) [2]: Induces Differentiation of Dendritic Cells
Concentration of maximum up regulation of cell surface densities of CD11c, CD80, CD54 ([2]; incubation of BM leukocyte precursors with different concentrations): 200 mM
Induction of differentiation of dendritic cells from BM precursors (in words) ([2]; listed as the compound): induces the differentiation of DCs from BM precursors
Effect on RANKL-induced osteoclast differentiation / formation (in words) (osteoclast precursors): dose dependent inhibition in the number of osteoclast cells generated

O=C(O)C[C@H](NS(=O)(=O)O)C(=O)O [example 3, L-aspartyl, N-sulfonic acid]
Effect on RANKL-induced osteoclast differentiation / formation (in words) (osteoclast precursors): significantly inhibited osteoclast formation

GM-CSF: Granulocyte Macrophage-Colony Stimulating Factor, growth factor conventionally used to generate DCs in vitro; comparison
Viability, % of Viable cells [1, 7]: 180%
Viability, % of Viable cells [1, 8]: 180%
Fold increase in Relative MFI over unstimulated control, surface marker CD11c [2, 7]: 5.0 fold
Fold increase in Relative MFI over unstimulated control, surface marker CD54 [2, 7]: 4.0 fold
Fold increase in Relative MFI over unstimulated control, surface marker CD80 [2, 7]: 3.3 fold
Fold increase in Relative MFI over unstimulated control, surface marker H-2D^d [2, 7]: 2.0 fold
Fold increase in Relative MFI over unstimulated control, surface marker CD11c [2, 8]: 5.0 fold
Fold increase in Relative MFI over unstimulated control, surface marker CD54 [2, 8]: 4.0 fold
Fold increase in Relative MFI over unstimulated control, surface marker CD80 [2, 8]: 3.3 fold
Fold increase in Relative MFI over unstimulated control, surface marker H-2D^d [2, 8]: 2.0 fold
